One assay relates to preintegration complexes. Nature of the assay: Circularization mediated by partially purified preintegration complexes. The note with it: for circular DNA formed by preintegration complexes: 37° C., 45 min. Format: biochemical, HIV-1. As to the method:
Viral preintegration complexes were partially purified from cytoplasmic extracts by Sephacryl S400 gel filtration chromatography. Cytoplasmic extracts (0.8 ml) were loaded onto a 22-ml Sephacryl S400 (Pharmacia) column, 28 cm in height, equilibrated in buffer K containing 0.5% Triton X-100 at 4° C. Fractions (0.5 ml) were collected at a flow rate of approximately 0.2 ml/min.
The linear viral DNA present in cytoplasmic extracts is a part of the nucleoprotein preintegration complex that can be separated from the bulk of cellular proteins by gel filtration chromatography [Farnet and Haseltine, J. Virol., 65: 1910-1915 (1991)]. Preintegration complexes were partially purified by Sephacryl S400 column chromatography and tested for the ability to mediate the circularization of viral DNA. Cytoplasmic extracts (1 ml, vol) were fractionated by Sephacryl S-400 gel filtration chromatography as previously described. The void volume fractions of the column, containing the peak of viral DNA, were pooled (total volume, 1.5 ml) and incubated as follows with the results shown in FIG. 20. Lane 1: column fractions were incubated at 37° C. for 45 minutes; lane 2: linear .phi.X174 DNA was added to column fractions to a final concentrations of 650 ng/ml and incubated at 37° C. for 45 minutes; lane 3: ATPγS was added to column fractions and incubated at 37° C. for 45 minutes; lane 4: same as lane 3, except that an equal volume of cytoplasmic extract from uninfected SupT1 cells was added prior to incubation; lane 5: ATP was added to column fractions to a final concentration of 1 mM and incubated at 37° C. for 45 minutes; lane 6: same as lane 5, except that an equal volume of cytoplasmic extract from uninfected SupT1 cells was added prior to incubation. […] Lane 1: products of the reaction shown in FIG. 20, lane 4, digested with SalI and PstI; lane 2: products of the reaction shown in FIG. 20, lane 5, digested with SalI and PstI; lane 3: products of the reaction shown in FIG. 20, lane 6, digested with SalI and PstI. […] The formation of all types of circular produts was dependent upon the addition of ATP, as viral DNA in column fractions remained linear during incubation at 37° C. in the absence of added ATP (FIG. 20, lane 1), regardless of the addition of uninfected SupT1 cell extracts.

Another assay concerns viral DNA. In words: PCR analysis of circular viral DNA formed in vitro. It counts as biochemical, HIV-1. As to the method:
The following oligonucleotides were used for PCR: PBS, 5'-GTCGCCGCCCCTCGCCTC-3'(SEQ ID No. 1); tat, 5'-[…]-3'(SEQ ID No. 2); nef, 5'-[…]-3'(SEQ ID No. 3); R1, 5'-[…]-3'(SEQ ID No. 4); R2, 5'-[…]-3'(SEQ ID No. […]). One hundred microliter reactions contained 10 mM Tris hydrochloride (pH 8.3), 50 mM KCl, 1.5 mM MgCl2, 0.001% (w/v) gelatin, 200 μM each dATP, dCTP, dGTP, and dTTP, 1 μM each of the indicated primer, and 2.5 units of AmpliTaq recombinant Taq DNA polymerase (Perkin Elmer Cetus Co., Norwalk, Conn.). For amplification of viral DNA from cytoplasmic extracts, each reaction contained approximately 1/30 the amount of DNA from a 3 ml extract. For amplification of viral DNA from Hirt extractions, each reaction contained DNA from the equivalent of 2×10^6 cells. An initial denaturation step at 98° C. was performed for 10 minutes. Thirty cycles of the PCR reaction were then performed with an annealing temperature of 60° C. for 1 minute, an extension temperature of 72° C. for 5 minutes, and a denaturation temperature of 95° C. for 1 minute. Reaction products were visualized following electrophoresis on 1% agarose gel containing ethidium bromide. […]
Additional rounds of PCR amplification were necessary to detect the presence of a DNA fragment corresponding to the 2-LTR junction fragment when viral DNA from Hirt supernatants of infected cells were used, presumably due to the lower concentration of 2-LTR circles as compared to 1-LTR circles in these preparations (data not shown). Similarly, 2-LTR junction fragments were not readily detected among the amplification products of circular viral DNA formed in vitro, most likely due to the low concentration of simple 2-LTR circles and competition by the other forms of circular viral DNA (1-LTR circles and 2-LTR circles formed by autointergration) present at much higher concentrations. […]

On to `Nc1ncnc2c1ncn2[C@@H]1O[C@H](COP(=O)(O)OP(=O)(O)OP(=O)(O)O)[C@@H](O)[C@H]1O` [ATP, adenosine triphosphate], for which the “1-LTR circle formation by preintegration complexes” value in the assay on preintegration complexes (1 mM ATP, plus cytoplasmic extract from uninfected SupT1 cells) is on record as “restored the ability to form 1-LTR circles”. Besides, the “2-LTR junction fragment from preintegration complexes” value with preintegration complexes (1 mM ATP, plus uninfected SupT1 cell extract) is on record as “a small amount of new 2-LTR junction fragment was also detected”. Further, the “circular DNA formed by preintegration complexes” value in the assay with preintegration complexes (1 mM, column fractions) is listed as “formation of only the 2-LTR circular DNA form”. The “PCR amplification product (2-LTR junction, R region primers)” value with viral DNA (SalI digested circular DNA formed with added ATP) is given as “A DNA fragment of the same size was detected”. The “PCR amplification products (PBS and tat primers, autointegration)” value in the assay with viral DNA (extracts incubated with 1 mM ATP) is recorded as “a mixture of DNA fragments of heterogeneous lengths”. Moreover, the “PCR amplification product (1-LTR circle junction)” value in the assay with viral DNA (extracts treated with 1 mM ATP, PBS and nef primers) was “a DNA fragment having the size expected for a 1-LTR circle junction was generated”.

Consider `Nc1ncnc2c1ncn2[C@@H]1O[C@H](COP(=O)(O)OP(=O)(O)OP(O)(O)=S)[C@@H](O)[C@H]1O` [ATPγS], for which the “circular DNA formed by preintegration complexes” value in the assay with preintegration complexes (in presence and absence of uninfected cell extracts) is reported as “exclusive formation of autointegration 2-LTR circles”.

For the origin of these results see patent publication US5759768A, “Assays for factors affecting circularization of DNA, assays for factors affecting DNA integration, factors, and uses thereof” (priority 1995, dated 1998).
